Data taken from BigSolDB 2.1.

O=C1c2cccc(Cl)c2C(=O)N1c1ccccc1 showed a solubility (mole fraction) (in 1,4-dioxane, 288.15 K) of 0.00825, a solubility (mole fraction) (in 1,4-dioxane, 290.65 K) of 0.00898 and a solubility (mole fraction) (in 1,4-dioxane, 293.15 K) of 0.00979. It also gave a solubility (mole fraction) (in 1,4-dioxane, 295.65 K) of 0.0107, a solubility (mole fraction) (in 1,4-dioxane, 298.15 K) of 0.0115 and a solubility (mole fraction) (in 1,4-dioxane, 300.65 K) of 0.0125. The solubility (mole fraction) (in 1,4-dioxane, 303.15 K) was 0.0134, the solubility (mole fraction) (in 1,4-dioxane, 305.65 K) was 0.0145 and the solubility (mole fraction) (in 1,4-dioxane, 308.15 K) was 0.0158. It also gave a solubility (mole fraction) (in 1,4-dioxane, 310.65 K) of 0.0171, a solubility (mole fraction) (in 1,4-dioxane, 313.15 K) of 0.0188 and a solubility (mole fraction) (in 1,4-dioxane, 315.65 K) of 0.0204. The solubility (mole fraction) (in 1,4-dioxane, 318.15 K) was 0.0224, the solubility (mole fraction) (in 1,4-dioxane, 320.65 K) was 0.0243 and the solubility (mole fraction) (in 1,4-dioxane, 323.15 K) was 0.0266. It also gave a solubility (mole fraction) (in acetic acid, 288.15 K) of 0.000923, a solubility (mole fraction) (in acetic acid, 290.65 K) of 0.00104 and a solubility (mole fraction) (in acetic acid, 293.15 K) of 0.00116. The solubility (mole fraction) (in acetic acid, 295.65 K) was 0.0013, the solubility (mole fraction) (in acetic acid, 298.15 K) was 0.00145 and the solubility (mole fraction) (in acetic acid, 300.65 K) was 0.00159. For the same compound, the solubility (mole fraction) (in acetic acid, 303.15 K) was 0.00175, the solubility (mole fraction) (in acetic acid, 305.65 K) was 0.00189 and the solubility (mole fraction) (in acetic acid, 308.15 K) was 0.00206. The solubility (mole fraction) (in acetic acid, 310.65 K) was 0.00225, the solubility (mole fraction) (in acetic acid, 313.15 K) was 0.00248 and the solubility (mole fraction) (in acetic acid, 315.65 K) was 0.00273. It also gave a solubility (mole fraction) (in acetic acid, 318.15 K) of 0.00299, a solubility (mole fraction) (in acetic acid, 320.65 K) of 0.00328 and a solubility (mole fraction) (in acetic acid, 323.15 K) of 0.00364. The solubility (mole fraction) (in acetone, 288.15 K) was 0.00298, the solubility (mole fraction) (in acetone, 290.65 K) was 0.00324 and the solubility (mole fraction) (in acetone, 293.15 K) was 0.00358. The solubility (mole fraction) (in acetone, 295.65 K) was 0.00392, the solubility (mole fraction) (in acetone, 298.15 K) was 0.00429 and the solubility (mole fraction) (in acetone, 300.65 K) was 0.00468. The solubility (mole fraction) (in acetone, 303.15 K) was 0.00505, the solubility (mole fraction) (in acetone, 305.65 K) was 0.00551 and the solubility (mole fraction) (in acetone, 308.15 K) was 0.00597. For the same compound, the solubility (mole fraction) (in acetone, 310.65 K) was 0.00654, the solubility (mole fraction) (in acetone, 313.15 K) was 0.00718 and the solubility (mole fraction) (in acetone, 315.65 K) was 0.00779. It also gave a solubility (mole fraction) (in acetone, 318.15 K) of 0.00851, a solubility (mole fraction) (in acetone, 320.65 K) of 0.00919 and a solubility (mole fraction) (in acetone, 323.15 K) of 0.00995. It also gave a solubility (mole fraction) (in acetonitrile, 288.15 K) of 0.00196, a solubility (mole fraction) (in acetonitrile, 290.65 K) of 0.00216 and a solubility (mole fraction) (in acetonitrile, 293.15 K) of 0.00236. For the same compound, the solubility (mole fraction) (in acetonitrile, 295.65 K) was 0.00258, the solubility (mole fraction) (in acetonitrile, 298.15 K) was 0.0028 and the solubility (mole fraction) (in acetonitrile, 300.65 K) was 0.00305. It also gave a solubility (mole fraction) (in acetonitrile, 303.15 K) of 0.00332, a solubility (mole fraction) (in acetonitrile, 305.65 K) of 0.00361 and a solubility (mole fraction) (in acetonitrile, 308.15 K) of 0.00397. It also gave a solubility (mole fraction) (in acetonitrile, 310.65 K) of 0.0043, a solubility (mole fraction) (in acetonitrile, 313.15 K) of 0.0047 and a solubility (mole fraction) (in acetonitrile, 315.65 K) of 0.00514. The solubility (mole fraction) (in acetonitrile, 318.15 K) was 0.00553, the solubility (mole fraction) (in acetonitrile, 320.65 K) was 0.00603 and the solubility (mole fraction) (in acetonitrile, 323.15 K) was 0.00655. The solubility (mole fraction) (in ethyl acetate, 288.15 K) was 0.0021, the solubility (mole fraction) (in ethyl acetate, 290.65 K) was 0.00232 and the solubility (mole fraction) (in ethyl acetate, 293.15 K) was 0.00255. The solubility (mole fraction) (in ethyl acetate, 295.65 K) was 0.00284, the solubility (mole fraction) (in ethyl acetate, 298.15 K) was 0.00315 and the solubility (mole fraction) (in ethyl acetate, 300.65 K) was 0.00347. The solubility (mole fraction) (in ethyl acetate, 303.15 K) was 0.0038, the solubility (mole fraction) (in ethyl acetate, 305.65 K) was 0.00412 and the solubility (mole fraction) (in ethyl acetate, 308.15 K) was 0.00448. For the same compound, the solubility (mole fraction) (in ethyl acetate, 310.65 K) was 0.00484, the solubility (mole fraction) (in ethyl acetate, 313.15 K) was 0.00525 and the solubility (mole fraction) (in ethyl acetate, 315.65 K) was 0.00568. For the same compound, the solubility (mole fraction) (in ethyl acetate, 318.15 K) was 0.00617, the solubility (mole fraction) (in ethyl acetate, 320.65 K) was 0.00669 and the solubility (mole fraction) (in ethyl acetate, 323.15 K) was 0.00734. It also gave a solubility (mole fraction) (in isobutanol, 288.15 K) of 0.000116, a solubility (mole fraction) (in isobutanol, 290.65 K) of 0.000128 and a solubility (mole fraction) (in isobutanol, 293.15 K) of 0.000149. The solubility (mole fraction) (in isobutanol, 295.65 K) was 0.000167, the solubility (mole fraction) (in isobutanol, 298.15 K) was 0.000189 and the solubility (mole fraction) (in isobutanol, 300.65 K) was 0.000221. It also gave a solubility (mole fraction) (in isobutanol, 303.15 K) of 0.000258, a solubility (mole fraction) (in isobutanol, 305.65 K) of 0.000296 and a solubility (mole fraction) (in isobutanol, 308.15 K) of 0.000341. It also gave a solubility (mole fraction) (in isobutanol, 310.65 K) of 0.000392, a solubility (mole fraction) (in isobutanol, 313.15 K) of 0.000457 and a solubility (mole fraction) (in isobutanol, 315.65 K) of 0.000526. For the same compound, the solubility (mole fraction) (in isobutanol, 318.15 K) was 0.000599, the solubility (mole fraction) (in isobutanol, 320.65 K) was 0.000679 and the solubility (mole fraction) (in isobutanol, 323.15 K) was 0.000762. It also gave a solubility (mole fraction) (in isopropanol, 288.15 K) of 7.27e-05, a solubility (mole fraction) (in isopropanol, 290.65 K) of 8.36e-05 and a solubility (mole fraction) (in isopropanol, 293.15 K) of 9.82e-05. For the same compound, the solubility (mole fraction) (in isopropanol, 295.65 K) was 0.000111, the solubility (mole fraction) (in isopropanol, 298.15 K) was 0.000132 and the solubility (mole fraction) (in isopropanol, 300.65 K) was 0.000151. It also gave a solubility (mole fraction) (in isopropanol, 303.15 K) of 0.000178, a solubility (mole fraction) (in isopropanol, 305.65 K) of 0.000208 and a solubility (mole fraction) (in isopropanol, 308.15 K) of 0.000237. The solubility (mole fraction) (in isopropanol, 310.65 K) was 0.000268, the solubility (mole fraction) (in isopropanol, 313.15 K) was 0.000305 and the solubility (mole fraction) (in isopropanol, 315.65 K) was 0.000345. It also gave a solubility (mole fraction) (in isopropanol, 318.15 K) of 0.000387, a solubility (mole fraction) (in isopropanol, 320.65 K) of 0.000445 and a solubility (mole fraction) (in isopropanol, 323.15 K) of 0.00053. For the same compound, the solubility (mole fraction) (in methanol, 288.15 K) was 0.000147, the solubility (mole fraction) (in methanol, 290.65 K) was 0.000171 and the solubility (mole fraction) (in methanol, 293.15 K) was 0.000194. It also gave a solubility (mole fraction) (in methanol, 295.65 K) of 0.00022, a solubility (mole fraction) (in methanol, 298.15 K) of 0.000249 and a solubility (mole fraction) (in methanol, 300.65 K) of 0.00028. For the same compound, the solubility (mole fraction) (in methanol, 303.15 K) was 0.000308, the solubility (mole fraction) (in methanol, 305.65 K) was 0.000339 and the solubility (mole fraction) (in methanol, 308.15 K) was 0.000381. It also gave a solubility (mole fraction) (in methanol, 310.65 K) of 0.000428, a solubility (mole fraction) (in methanol, 313.15 K) of 0.000478 and a solubility (mole fraction) (in methanol, 315.65 K) of 0.000533. The solubility (mole fraction) (in methanol, 318.15 K) was 0.00059, the solubility (mole fraction) (in methanol, 320.65 K) was 0.000656 and the solubility (mole fraction) (in methanol, 323.15 K) was 0.000745. For the same compound, the solubility (mole fraction) (in n-butanol, 288.15 K) was 0.000183, the solubility (mole fraction) (in n-butanol, 290.65 K) was 0.000204 and the solubility (mole fraction) (in n-butanol, 293.15 K) was 0.000234. The solubility (mole fraction) (in n-butanol, 295.65 K) was 0.000266, the solubility (mole fraction) (in n-butanol, 298.15 K) was 0.000308 and the solubility (mole fraction) (in n-butanol, 300.65 K) was 0.000345. For the same compound, the solubility (mole fraction) (in n-butanol, 303.15 K) was 0.000388, the solubility (mole fraction) (in n-butanol, 305.65 K) was 0.000432 and the solubility (mole fraction) (in n-butanol, 308.15 K) was 0.000478. The solubility (mole fraction) (in n-butanol, 310.65 K) was 0.000535, the solubility (mole fraction) (in n-butanol, 313.15 K) was 0.000597 and the solubility (mole fraction) (in n-butanol, 315.65 K) was 0.000665. For the same compound, the solubility (mole fraction) (in n-butanol, 318.15 K) was 0.00074, the solubility (mole fraction) (in n-butanol, 320.65 K) was 0.000821 and the solubility (mole fraction) (in n-butanol, 323.15 K) was 0.000908. The solubility (mole fraction) (in n-propanol, 288.15 K) was 0.000162, the solubility (mole fraction) (in n-propanol, 290.65 K) was 0.000187 and the solubility (mole fraction) (in n-propanol, 293.15 K) was 0.000226. It also gave a solubility (mole fraction) (in n-propanol, 295.65 K) of 0.000266, a solubility (mole fraction) (in n-propanol, 298.15 K) of 0.000311 and a solubility (mole fraction) (in n-propanol, 300.65 K) of 0.000353. The solubility (mole fraction) (in n-propanol, 303.15 K) was 0.000411, the solubility (mole fraction) (in n-propanol, 305.65 K) was 0.000468 and the solubility (mole fraction) (in n-propanol, 308.15 K) was 0.000527. For the same compound, the solubility (mole fraction) (in n-propanol, 310.65 K) was 0.000593, the solubility (mole fraction) (in n-propanol, 313.15 K) was 0.000668 and the solubility (mole fraction) (in n-propanol, 315.65 K) was 0.000747. It also gave a solubility (mole fraction) (in n-propanol, 318.15 K) of 0.00083, a solubility (mole fraction) (in n-propanol, 320.65 K) of 0.000917 and a solubility (mole fraction) (in n-propanol, 323.15 K) of 0.00103.
